According to the NIST ThermoML archive (doi:10.1021/acs.jced.7b00773):

Conditions: Liquid; for viscosity: Concentric cylinders viscometry

CCn1cc[n+](C)c1.N#C[B-](C#N)(C#N)C#N [1-ethyl-3-methylimidazolium tetracyanoborate]
100 kPa
Conditions | viscosity [mPa·s]
293.15 K | 22.11
303.15 K | 15.38
313.15 K | 11.23
323.15 K | 8.55
333.15 K | 6.751
343.15 K | 5.473
353.15 K | 4.537
363.15 K | 3.833
373.15 K | 3.289

Conditions | mass density [kg/m3]
293.15 K, 100 kPa, Vibrating tube method | 1040.5
303.15 K, 100 kPa, Vibrating tube method | 1032.7
311.8 K, 10000 kPa, Bellows volumetry | 1031.2
311.8 K, 20000 kPa, Bellows volumetry | 1036.6
311.8 K, 30000 kPa, Bellows volumetry | 1041.7
311.8 K, 40000 kPa, Bellows volumetry | 1046.6
311.8 K, 50000 kPa, Bellows volumetry | 1051.3
311.8 K, 60000 kPa, Bellows volumetry | 1055.9
311.8 K, 70000 kPa, Bellows volumetry | 1060.3
311.8 K, 80000 kPa, Bellows volumetry | 1064.6
311.8 K, 90000 kPa, Bellows volumetry | 1068.7
311.8 K, 100000 kPa, Bellows volumetry | 1072.8
311.8 K, 110000 kPa, Bellows volumetry | 1076.8
311.8 K, 120000 kPa, Bellows volumetry | 1080.6
311.8 K, 130000 kPa, Bellows volumetry | 1084.3
311.8 K, 140000 kPa, Bellows volumetry | 1088
311.8 K, 150000 kPa, Bellows volumetry | 1091.6
311.8 K, 160000 kPa, Bellows volumetry | 1095.1
311.8 K, 170000 kPa, Bellows volumetry | 1098.5
311.8 K, 180000 kPa, Bellows volumetry | 1101.9
311.8 K, 190000 kPa, Bellows volumetry | 1105.1
311.8 K, 200000 kPa, Bellows volumetry | 1108.5
313.15 K, 100 kPa, Vibrating tube method | 1024.9
323.15 K, 100 kPa, Vibrating tube method | 1017.2
331.7 K, 10000 kPa, Bellows volumetry | 1016.3
331.7 K, 20000 kPa, Bellows volumetry | 1021.9
331.7 K, 30000 kPa, Bellows volumetry | 1027.4
331.7 K, 40000 kPa, Bellows volumetry | 1032.6
331.7 K, 50000 kPa, Bellows volumetry | 1037.5
331.7 K, 60000 kPa, Bellows volumetry | 1042.3
331.7 K, 70000 kPa, Bellows volumetry | 1046.9
331.7 K, 80000 kPa, Bellows volumetry | 1051.4
331.7 K, 90000 kPa, Bellows volumetry | 1055.7
331.7 K, 100000 kPa, Bellows volumetry | 1059.9
331.7 K, 110000 kPa, Bellows volumetry | 1064
331.7 K, 120000 kPa, Bellows volumetry | 1068
331.7 K, 130000 kPa, Bellows volumetry | 1071.9
331.7 K, 140000 kPa, Bellows volumetry | 1075.6
331.7 K, 150000 kPa, Bellows volumetry | 1079.2
331.7 K, 160000 kPa, Bellows volumetry | 1082.9
331.7 K, 170000 kPa, Bellows volumetry | 1086.4
331.7 K, 180000 kPa, Bellows volumetry | 1089.9
331.7 K, 190000 kPa, Bellows volumetry | 1093.3
331.7 K, 200000 kPa, Bellows volumetry | 1096.7
333.15 K, 100 kPa, Vibrating tube method | 1009.6
343.15 K, 100 kPa, Vibrating tube method | 1002
351.8 K, 10000 kPa, Bellows volumetry | 1001.6
351.8 K, 20000 kPa, Bellows volumetry | 1007.5
351.8 K, 30000 kPa, Bellows volumetry | 1013.3
351.8 K, 40000 kPa, Bellows volumetry | 1018.7
351.8 K, 50000 kPa, Bellows volumetry | 1024
351.8 K, 60000 kPa, Bellows volumetry | 1029
351.8 K, 70000 kPa, Bellows volumetry | 1033.8
351.8 K, 80000 kPa, Bellows volumetry | 1038.5
351.8 K, 90000 kPa, Bellows volumetry | 1043
351.8 K, 100000 kPa, Bellows volumetry | 1047.3
351.8 K, 110000 kPa, Bellows volumetry | 1051.5
351.8 K, 120000 kPa, Bellows volumetry | 1055.7
351.8 K, 130000 kPa, Bellows volumetry | 1059.7
351.8 K, 140000 kPa, Bellows volumetry | 1063.6
351.8 K, 150000 kPa, Bellows volumetry | 1067.4
351.8 K, 160000 kPa, Bellows volumetry | 1071.2
351.8 K, 170000 kPa, Bellows volumetry | 1074.8
351.8 K, 180000 kPa, Bellows volumetry | 1078.4
351.8 K, 190000 kPa, Bellows volumetry | 1081.9
351.8 K, 200000 kPa, Bellows volumetry | 1085.3
353.15 K, 100 kPa, Vibrating tube method | 994.8
363.15 K, 100 kPa, Vibrating tube method | 987.5
372 K, 10000 kPa, Bellows volumetry | 987.2
372 K, 20000 kPa, Bellows volumetry | 993.6
372 K, 30000 kPa, Bellows volumetry | 999.6
372 K, 40000 kPa, Bellows volumetry | 1005.4
372 K, 50000 kPa, Bellows volumetry | 1010.8
372 K, 60000 kPa, Bellows volumetry | 1016
372 K, 70000 kPa, Bellows volumetry | 1021
372 K, 80000 kPa, Bellows volumetry | 1025.9
372 K, 90000 kPa, Bellows volumetry | 1030.5
372 K, 100000 kPa, Bellows volumetry | 1035.1
372 K, 110000 kPa, Bellows volumetry | 1039.5
372 K, 120000 kPa, Bellows volumetry | 1043.8
372 K, 130000 kPa, Bellows volumetry | 1048
372 K, 140000 kPa, Bellows volumetry | 1052.1
372 K, 150000 kPa, Bellows volumetry | 1055.9
372 K, 160000 kPa, Bellows volumetry | 1059.8
372 K, 170000 kPa, Bellows volumetry | 1063.5
372 K, 180000 kPa, Bellows volumetry | 1067.2
372 K, 190000 kPa, Bellows volumetry | 1070.9
372 K, 200000 kPa, Bellows volumetry | 1074.4
373.15 K, 100 kPa, Vibrating tube method | 980.3
392.1 K, 10000 kPa, Bellows volumetry | 973
392.1 K, 20000 kPa, Bellows volumetry | 979.8
392.1 K, 30000 kPa, Bellows volumetry | 986.2
392.1 K, 40000 kPa, Bellows volumetry | 992.2
392.1 K, 50000 kPa, Bellows volumetry | 998
392.1 K, 60000 kPa, Bellows volumetry | 1003.4
392.1 K, 70000 kPa, Bellows volumetry | 1008.6
392.1 K, 80000 kPa, Bellows volumetry | 1013.8
392.1 K, 90000 kPa, Bellows volumetry | 1018.6
392.1 K, 100000 kPa, Bellows volumetry | 1023.3
392.1 K, 110000 kPa, Bellows volumetry | 1028
392.1 K, 120000 kPa, Bellows volumetry | 1032.4
392.1 K, 130000 kPa, Bellows volumetry | 1036.6
392.1 K, 140000 kPa, Bellows volumetry | 1040.8
392.1 K, 150000 kPa, Bellows volumetry | 1044.9
392.1 K, 160000 kPa, Bellows volumetry | 1048.8
392.1 K, 170000 kPa, Bellows volumetry | 1052.8
392.1 K, 180000 kPa, Bellows volumetry | 1056.5
392.1 K, 190000 kPa, Bellows volumetry | 1060.2
392.1 K, 200000 kPa, Bellows volumetry | 1063.9
412.2 K, 10000 kPa, Bellows volumetry | 959.2
412.2 K, 20000 kPa, Bellows volumetry | 966.3
412.2 K, 30000 kPa, Bellows volumetry | 973
412.2 K, 40000 kPa, Bellows volumetry | 979.4
412.2 K, 50000 kPa, Bellows volumetry | 985.4
412.2 K, 60000 kPa, Bellows volumetry | 991.1
412.2 K, 70000 kPa, Bellows volumetry | 996.6
412.2 K, 80000 kPa, Bellows volumetry | 1001.9
412.2 K, 90000 kPa, Bellows volumetry | 1007
412.2 K, 100000 kPa, Bellows volumetry | 1011.9
412.2 K, 110000 kPa, Bellows volumetry | 1016.6
412.2 K, 120000 kPa, Bellows volumetry | 1021.2
412.2 K, 130000 kPa, Bellows volumetry | 1025.7
412.2 K, 140000 kPa, Bellows volumetry | 1030
412.2 K, 150000 kPa, Bellows volumetry | 1034.1
412.2 K, 160000 kPa, Bellows volumetry | 1038.2
412.2 K, 170000 kPa, Bellows volumetry | 1042.2
412.2 K, 180000 kPa, Bellows volumetry | 1046.1
412.2 K, 190000 kPa, Bellows volumetry | 1049.9
412.2 K, 200000 kPa, Bellows volumetry | 1053.6
